Experimental data reported in US20220031680A1, “Donecopride As Neuroprotective Agent In the Treatment of Neurodegenerative Diseases” (priority 2018, published 2022).

System: C57Bl6/J mice challenged with an intracerebroventricular injection of Aβ1-42 oligomers (AβO)
Test: Y-maze test (spatial working memory) in mice icv injected with AβO
Assay type: in vivo, mouse
Settings: day +4
Description: Briefly, 144 C57Bl6/J male mice (3 months of age) were received and housed (4 to 5 per cage) in quarantine during 7 days, or longer. Test items were dosed per os (through oral gavage) once daily at different concentrations from day −1 to day +17.
At day 0, mice received a single icv injection of vehicle or AβO.
At day +4 (i.e. four days after disease induction), spatial working memory was assessed using the Y-maze test.
The different experimental groups are defined as follow: • GROUP A (vehicle CTRL): po vehicle AND icv injection of vehicle (n=12) • GROUP B (APO CTRL): po vehicle AND icv injection of AβO (n=12) • GROUP C (positive CTRL): po Donepezil subchronic AND icv injection of AβO (n=12) • GROUP D (Donecopride CTRL): po Donecopride (9 mg/kg) AND icv injection of vehicle (n=12) • GROUP E (Flucopride CTRL): po Flucopride (9 mg/kg) AND icv injection of vehicle (n=12) • GROUP F (Donecopride Treated): po Donecopride (1 mg/kg) AND icv injection of AβO (n=12) • GROUP G (Donecopride Treated): po Donecopride (3 mg/kg) AND icv injection of AβO (n=12) • GROUP H (Donecopride Treated): po Donecopride (9 mg/kg) AND icv injection of AβO (n=12) • GROUP I (Fluocopride Treated): po Flucopride (1 mg/kg) AND icv injection of AβO (n=12) • GROUP J (Flucopride Treated): po Flucopride (3 mg/kg) AND icv injection of AβO (n=12) • GROUP K (Flucopride Treated): po Flucopride (9 mg/kg) AND icv injection of AβO (n=12) • GROUP L (positive CTRL): ip Donepezil acute on test days AND icv injection of AβO (n=12)
For per os dosing, Donecopride and Flucopride were formulated by solubilization in 0.9% NaCl. Compound dosing (total volume of 200 μL) started one day before induction of the disease (through icv injection of AβO) and was done for 19 consecutive days.
Single intra-cerebroventricular injection of 144 mice with vehicle or APO (max. 24 mice per day, all mice randomized): under anesthesia (ip injection of a mixture of ketamine/xylasine at a dose of 110 and 15 mg/kg, respectively) AβO (1 μL), or vehicle (1 μL) were injected into the right lateral ventricle. Injections were made using 10 μL Hamilton micro syringes fitted with a 26-gauge needle. The procedure was terminated by a subcutaneous injection of metacam (analgesia) at a dose of 5 mg/kg. Animals were then placed individually in their home-cage and the cage was placed in a heated cabinet until the animal has fully recovered. Animals were carefully monitored to control recovery after anesthesia.
Preparation of APO: Aβ1-42 was obtained from Bachem (ref H1368) (batch number: 1052301). The preparation of stable Aβ1-42 oligomers was performed as described in Garcia et al. (2010) J. Neurosci. 30:7516-7527. The oligomeric preparation (identified as Batch #2016-14) contained a mixture of stable trimers and tetramers of Aβ1-42, as well as monomeric forms of the peptide. All oligomer preparations used were previously characterized in terms of oligomer composition and in vitro neurotoxicity.
6 independent trials involving each 24 mice (i.e. 2 mice from each experimental group) for a total of 144 mice at day +4—Behavioral tests were performed 1 h after dosing.
Detailed protocol: Immediate spatial working memory performance was assessed by recording spontaneous alternation behavior in a Y-maze. The maze is made of opaque Plexiglas and each of the three arms is 40 cm long, 14 cm high, 10 cm wide and positioned at equal angles. The apparatus is placed in a homogeneously lit test room to obtain 12-15 lux in all arms as well as in the central zone. Mice are placed in the middle of one arm and allowed to explore the maze freely during 5 min session. The series of arm entries are video recorded (Smart v3.0 software, Bioseb) and an arm entry is considered complete when the hind paws of the mouse are completely placed in the arm. Alternation is defined as successive entries into the 3 arms on overlapping triplet sets. […]

[1] = 9 mg/kg/day po, icv vehicle (no AβO)

## COc1cc2c(cc1OC)C(=O)C(CC1CCN(Cc3ccccc3)CC1)C2 (stereo not shown) [Donepezil, reference compound]
Ip acute on test day, icv AβO (Group L)
  alternation behavior (Y-maze): 60.8±1.9%
Per os subchronic, icv AβO (Group C)
  alternation behavior (Y-maze): 66.1±1.8%

## COc1cc(N)c(Cl)cc1C(=O)CCC1CCN(CC2CCCCC2)CC1 [Donecopride]
1 mg/kg/day po, icv AβO
  alternation behavior (Y-maze): 56.6±3.7%
3 mg/kg/day po, icv AβO
  alternation behavior (Y-maze): 65.5±4.4%
9 mg/kg/day po, icv AβO
  alternation behavior (Y-maze): 64.3±5.1%
[1]
  alternation behavior (Y-maze): 59.3±4.0%

## COc1cc(N)c(F)cc1C(=O)CCC1CCN(CC2CCCCC2)CC1 [Flucopride]
1 mg/kg/day po, icv AβO
  alternation behavior (Y-maze): 67.1±2.7%
3 mg/kg/day po, icv AβO
  alternation behavior (Y-maze): 65.3±4.1%
9 mg/kg/day po, icv AβO
  alternation behavior (Y-maze): 59.1±3.0%
[1]
  alternation behavior (Y-maze): 63.1±2.3%
